From patent publication US20210346506A1, “PRODRUG OF ITRACONAZOLE AND USES THEREOF” (priority 2020, published 2021)

Key:
[1] = Compound stability test in human blood; format: in vitro ADME; conditions: 37° C., 1 μM; for Remaining Percentages (%): human blood; for half-life at 1 μM: in vitro half-life in human blood
Method: (§1) One (1) mM test compound working solution was prepared in DMSO. One (1) mM propantheline working solution was prepared in acetonitrile, wherein propantheline was used as positive control in this assay.
(§2) Ten (10) μL of each test compound solution and the control compound solution were respectively added into a 96 deep well plate, and 40 μL of acetonitrile:water (V/V=1:1) was added to each well to dilute the 1 mM test compound solution to 200 μM working solution.
(§3) Mouse blood (male CD-1 mouse blood, Pharmaron, Lot# PH-ADME-Mouse-20180329) or human blood (Pharmaron, Lot# PH-ADME-Human-20180329) of 398 μL was added to each well of an incubation plate, and then the incubation plate was pre-warmed at 37° C. for 15 minutes. After the pre-incubation, 2 μL of 200 μM working solution prepared above was spiked to the pre-warmed 398 μL blood to reach a final concentration of 1 μM. The final concentration of DMSO was 0.1% and the final concentration of acetonitrile was 0.2%. The assay was performed in duplicate.
(§4) The incubation plate was incubated at 37° C. water bath with shaking at 50 rpm, and aliquots of 50 μL were taken from each well of the incubation plate at 0, 10, 30, 60, 90, 120 and 180 minutes.
(§5) The reaction was stopped by the addition of 50 μL of pure water. The plate was vortexed for 30 seconds at 1,000 rpm and then added with 300 μL of cold acetonitrile containing internal standards (100 nM aprozolam, 200 nM caffeine, 100 nM tolbutamide).
(§6) All samples were vortexed for 10 minutes, followed by centrifugation at 14,000 rpm for 15 minutes to precipitate proteins. 100 μL of each supernatant was transferred to a new plate, and diluted with ultrapure water according to the LC-MS signal response and peak shape.
(§7) Samples were analyzed by LC-MS/MS.
(§8) • LC system: ACQUITY UPLC® I-Class • MS analysis: Waters XEVO® TQ-D with an ESI interface • Column temperature: 40° C. • Injection volume: 3 μL • Column: Waters XSelect HSS T3 C18, 2.5 μm, 2.1×50 mm column • Mobile phase: 0.1% formic acid in water (A) and 0.1% formic acid in acetonitrile (B)
(§9) • Ion source: Turbo spray • Ionization model: ESI • Scan type: MRM • Cone gas: 150 L/h • Desolvation gas: 1000 L/h • Desolvation temperature: 500° C. • Capillary voltage: 3.00 KV
(§10) All calculations were carried out using Microsoft Excel. Peak area ratios were determined from extracted ion chromatograms, and percent compounds remaining at each time point were calculated by the following equation:
(§11) Remaining Percentaget min(%)=Peak Area Ratiot min/Peak Area Ratio0 min×100, where Peak Area Ratiot min referred to peak area ratio of control and test compounds at t min; and Peak Area Ratio0 min referred to peak area ratio of control and test compounds at zero time point. The in vitro half-life (in vitro t1/2) was determined from the slope value: In vitro T1/2=−(0.693/k).

[2] = Compound stability test in mouse blood; format: in vitro ADME; conditions: 37° C., 1 μM; for half-life at 1 μM: male, CD-1, in vitro half-life in mouse blood; for Remaining Percentages (%): mouse blood
Method: as §1, §2, §3, §4, §5, §6, §7, §8, §9, §10, §11

SMILES	Remaining Percentages (%) ([1]; 0 min)	Remaining Percentages (%) ([1]; 10 min)	Remaining Percentages (%) ([1]; 30 min)	Remaining Percentages (%) ([1]; 60 min)	Remaining Percentages (%) ([1]; 90 min)	Remaining Percentages (%) ([1]; 120 min)	Remaining Percentages (%) ([1]; 180 min)	half-life at 1 μM [1] [min]	half-life at 1 μM [2] [min]	Remaining Percentages (%) ([2]; 0 min)	Remaining Percentages (%) ([2]; 10 min)	Remaining Percentages (%) ([2]; 30 min)	Remaining Percentages (%) ([2]; 60 min)	Remaining Percentages (%) ([2]; 90 min)	Remaining Percentages (%) ([2]; 120 min)	Remaining Percentages (%) ([2]; 180 min)
CCCOC(=O)OC[n+]1cnn(CC2(c3ccc(Cl)cc3Cl)OCC(COc3ccc(N4CCN(c5ccc(-n6cnn(C(C)CC)c6=O)cc5)CC4)cc3)O2)c1.[Cl-] (stereo not shown) [Compound 7]	100	25.3	BLOD	BLOD	BLOD	BLOD	BLOD	5.07	7.12	100	37.3	BLOD	BLOD	BLOD	BLOD	BLOD
CCC(C)n1ncn(-c2ccc(N3CCN(c4ccc(OCC5COC(Cn6c[n+](COC(=O)OC(C)C)cn6)(c6ccc(Cl)cc6Cl)O5)cc4)CC3)cc2)c1=O.[Cl-] (stereo not shown) [Compound 8]	100	31.6	1.40%	0.785%	0.616%	BLOD	BLOD	6.03	21.9	100	71.2	40.2%	14.8%	7.0%	3.99%	1.03%
CCC(C)n1ncn(-c2ccc(N3CCN(c4ccc(OCC5COC(Cn6c[n+](C)cn6)(c6ccc(Cl)cc6Cl)O5)cc4)CC3)cc2)c1=O.[Cl-] (stereo not shown) [Compound 1]	100	68.5	32.6%	12.3%	7.80%	2.02%	0.36%	23.1	1.77	100	2.01	0.00%	0.00%	0.00%	0.00%	0.00%
CC(C)[N+](C)(CCOC(=O)C1c2ccccc2Oc2ccccc21)C(C)C [Propantheline, propantheline, reference compound]	100	85.5	55.8%	29.2%	15.2%	6.83%	1.84%	32.8	38.8	100	88.8	62.4%	34.8%	20.4%	12.3%	4.44%
